Measured values as given in US20240254186A1, “GLP-1 Receptor Agonists Having Improved Pharmacological and Drug Delivery Properties” (priority 2021, published 2024).
Where two headings read alike, the source gives them in different places. Numbered stars: 1 amine (or outer) side, 2 acyl side, 3 side chain; on linkers, the order of the positions; unused ones are H or OH. Square brackets hold non-standard residues; d marks the D form. Side chains are listed from the residue outwards. Peptide text beside a SMILES is read from it. * marks the point of attachment. ξ: configuration not given here. Dap(Nα-HOOC(CH2)16CO)OH = O=C(O)CCCCCCCCCCCCCCCCC(=O)N[C@@H](CN*)C(=O)O; X6 = O=C([C@H](CCc1ccc(OC(=O)[*:3])cc1)N[*:1])[*:2]; Bip = N[C@@H](Cc1ccc(-c2ccccc2)cc1)C(=O)O; C18 diacid = O=C(O)CCCCCCCCCCCCCCCCC(=O)*; Hydrocinnamoyl(4-I) = O=C(CCc1ccc(I)cc1)*; X2 = O=C(CCc1ccc(I)cc1)N[C@@H](CN*)C(=O)O; αMePhe(2-F) = C[C@](N)(Cc1ccccc1F)C(=O)O; ξαMePhe(2-F) = CC(N)(Cc1ccccc1F)C(=O)O; hPhe = N[C@@H](CCc1ccccc1)C(=O)O; αMeF = C[C@](N)(Cc1ccccc1)C(=O)O; αMeP = C[C@@]1(C(=O)O)CCCN1; dDap = NC[C@@H](N)C(=O)O; ξαMeP = CC1(C(=O)O)CCCN1; ξαMeS = CC(N)(CO)C(=O)O; AEEA = NCCOCCOCC(=O)O; Aib = CC(C)(N)C(=O)O

Biological target: T1, hGLP1 receptor (Homo sapiens, UniProt P43220)
T1 construct: expressed in transfected cells; host or cells: HEK (human embryonic kidney) cells co-expressing hGLP1 receptor and a CRE-Luciferase construct
T1 sequence (P43220 24-463): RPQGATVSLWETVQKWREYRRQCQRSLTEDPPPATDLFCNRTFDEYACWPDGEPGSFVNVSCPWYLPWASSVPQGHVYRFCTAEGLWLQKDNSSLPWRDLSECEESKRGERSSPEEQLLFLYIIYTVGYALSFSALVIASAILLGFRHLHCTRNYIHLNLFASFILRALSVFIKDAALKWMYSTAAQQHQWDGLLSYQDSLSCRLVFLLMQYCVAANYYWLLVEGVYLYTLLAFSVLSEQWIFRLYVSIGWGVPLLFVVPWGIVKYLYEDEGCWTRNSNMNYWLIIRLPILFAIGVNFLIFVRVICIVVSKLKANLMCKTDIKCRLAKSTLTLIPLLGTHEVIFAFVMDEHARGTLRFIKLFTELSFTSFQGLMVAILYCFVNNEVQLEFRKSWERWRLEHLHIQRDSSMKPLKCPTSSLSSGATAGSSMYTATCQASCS
Test: cAMP HTRF agonist assay in HEK cells co-expressing the hGLP1 receptor and CRE-Luciferase construct
Format: cell-based
Settings: for potency compared with the parent peptide analog (1-2), in words: replacement of Aib2, versus parent 1-2; for potency relative to the parent peptide (1-4), fold less potent: versus parent 1-4
Experimental: Human embryonic kidney cells (HEK) co-expressing the hGLP1 receptor and CRE-Luciferase construct were used to determine agonist potency in this assay. The cells were thawed briefly at 37° C., transferred to a sterile tube and re-suspended in complete media at 37° C. Cells were centrifuged at 1000 rpm for 5 minutes and cells collected; cells were re-suspended in assay buffer consisting of DPBS (GIBCO) with 500 μM of the phosphodiesterase inhibitor IBMX. […] The optimal cell density was determined to be 1000 cells/well; cells were added to wells in 384-well plates containing appropriate pre-prepared dilutions of compounds (test peptides or reference compound exendin-4), sealed and incubated with CO2 for 30 min. Test peptide solutions were diluted from 10 mM stock solutions; for most peptides an initial run was performed in duplicate from a maximal concentration of 1.0 μM, with 11 concentrations tested for each peptide using serial 1:3 dilution from this maximal concentration. […] The agonist assay was a homogeneous time-resolved fluorescence (HTRF) assay (Cisbio).
Following incubation of the cells for 30 minutes with test or reference peptides, 5 μL of the cAMP acceptor cAMP-d2, prepared previously as a working solution from frozen stock (1:20 dilution), was added to each well of the assay plate, along with 5 μL of anti-cAMP antibody-cryptate working solution (diluted 1:20 from frozen stock). The wells were incubated for 1 hour at room temperature, and fluorescence was then read at 665 and 615 nm with an Envision reader with TRF laser. Data were saved and analyzed using Prism software (GraphPad). Concentration-response analysis was performed using 4-parameter logistic fits of the resulting data, and EC50 values obtained for each test and reference compound.

[1] = read-out: cAMP EC50, nM (0.1% albumin), Table 6, C-terminal PK-modifier conjugates, 0.1% albumin

C[C@@H](O)[C@H](NC(=O)CNC(=O)[C@H](CCC(=O)O)NC(=O)C(C)(C)NC(=O)[C@@H](N)Cc1c[nH]cn1)C(=O)N[C@@](C)(Cc1ccccc1)C(=O)N[C@H](C(=O)N[C@@H](CO)C(=O)N[C@@H](CC(=O)O)C(=O)N[C@@H](Cc1ccc(-c2ccccc2)cc1)C(=O)N[C@@H](Cc1ccc(-c2ccccc2)cc1)C(N)=O)[C@@H](C)O [3-16, H2N-His-Aib-Glu-Gly-Thr-α-MePhe-Thr-Ser-Asp-Bip-Bip-C(O)NH2] (H-H[Aib]EGT[αMeF]TSD[Bip][Bip]-NH2)
EC50 (cAMP EC50, nM (0.1% albumin), Table 1, Phe6 modifications, 0.1% albumin): 0.32 nM

C[C@@H](O)[C@H](NC(=O)CNC(=O)[C@H](CCC(=O)O)NC(=O)C(C)(C)NC(=O)[C@@H](N)Cc1c[nH]cn1)C(=O)N[C@@](C)(Cc1ccccc1)C(=O)N[C@H](C(=O)N[C@@H](CO)C(=O)N[C@@H](CC(=O)O)C(=O)N[C@@H](Cc1ccc(-c2ccccc2)cc1)C(=O)N[C@@H](Cc1ccc(-c2ccccc2)cc1)C(N)=O)[C@@H](C)O [3-17, H2N-His-Aib-Glu-Gly-Thr-α-MePhe-Thr-Ser-Asp-Bip-Bip-C(O)NH2] (H-H[Aib]EGT[αMeF]TSD[Bip][Bip]-NH2)
EC50 (Table 1, cell annotated (0% albumin), read-out: cAMP EC50): 0.08 nM

CC(C)[C@H](NC(=O)[C@@H](N)Cc1c[nH]cn1)C(=O)N[C@@H](CCC(=O)O)C(=O)NCC(=O)N[C@H](C(=O)N[C@@](C)(Cc1ccccc1F)C(=O)N[C@H](C(=O)N[C@@H](CO)C(=O)N[C@@H](CC(=O)O)C(=O)N[C@@H](Cc1ccc(-c2ccccc2)cc1)C(=O)N[C@@H](Cc1ccc(-c2ccccc2)cc1)C(N)=O)[C@@H](C)O)[C@@H](C)O [3-39, H2N-His-Val-Glu-Gly-Thr-α-MePhe(2-F)-Thr-Ser-Asp-Bip-Bip-C(O)NH2] (H-HVEGT[αMePhe(2-F)]TSD[Bip][Bip]-NH2)
potency compared with the parent peptide analog (1-2), in words: slightly less potency

C[C@@H](O)[C@H](NC(=O)CNC(=O)[C@H](CCC(=O)O)NC(=O)[C@]1(C)CCCN1C(=O)[C@@H](N)Cc1c[nH]cn1)C(=O)N[C@@](C)(Cc1ccccc1F)C(=O)N[C@H](C(=O)N[C@@H](CO)C(=O)N[C@@H](CC(=O)O)C(=O)N[C@@H](Cc1ccc(-c2ccccc2)cc1)C(=O)N[C@@H](Cc1ccc(-c2ccccc2)cc1)C(N)=O)[C@@H](C)O [3-40, H2N-His-α-MePro-Glu-Gly-Thr-α-MePhe(2-F)-Thr-Ser-Asp-Bip-Bip-C(O)NH2] (H-H[αMeP]EGT[αMePhe(2-F)]TSD[Bip][Bip]-NH2)
potency compared with the parent peptide analog (1-2), in words: significantly greater potency

C[C@@H](O)[C@H](NC(=O)CNC(=O)[C@H](CCC(=O)O)NC(=O)C1(C)CCCN1C(=O)[C@@H](N)Cc1c[nH]cn1)C(=O)NC(C)(Cc1ccccc1F)C(=O)NC(C)(CO)C(=O)N[C@@H](CO)C(=O)N[C@@H](CC(=O)O)C(=O)N[C@@H](Cc1ccc(-c2ccccc2)cc1)C(=O)N[C@@H](Cc1ccc(-c2ccccc2)cc1)C(N)=O (some centres unmarked) [3-59] (H-H[ξαMeP]EGT[ξαMePhe(2-F)][ξαMeS]SD[Bip][Bip]-NH2)
EC50 (cAMP EC50, nM (0.1% albumin), Table 4, N-terminal modifications, 0.1% albumin): 20.9 nM

C[C@@H](O)[C@H](NC(=O)CNC(=O)[C@H](CCC(=O)O)NC(=O)C(C)(C)NC(=O)[C@@H](N)Cc1c[nH]cn1)C(=O)N[C@@](C)(Cc1ccccc1F)C(=O)N[C@H](C(=O)N[C@@H](CO)C(=O)N[C@@H](CC(=O)O)C(=O)N[C@@H](Cc1ccc(-c2ccccc2)cc1)C(=O)N[C@@H](CCc1ccccc1)C(=O)O)[C@@H](C)O [4-1, H2N-His-Aib-Glu-Gly-Thr-α-MePhe(2-F)-Thr-Ser-Asp-Bip-Hph-C(O)OH] (H-H[Aib]EGT[αMePhe(2-F)]TSD[Bip][hPhe]-OH)
potency relative to the parent peptide (1-4), fold less potent: about 30 fold

C[C@@H](O)[C@H](NC(=O)CNC(=O)[C@H](CCC(=O)O)NC(=O)C(C)(C)NC(=O)[C@@H](N)Cc1c[nH]cn1)C(=O)N[C@@](C)(Cc1ccccc1F)C(=O)N[C@H](C(=O)N[C@@H](CO)C(=O)N[C@@H](CC(=O)O)C(=O)N[C@@H](Cc1ccc(-c2ccccc2)cc1)C(=O)N[C@@H](CCc1ccccc1)C(=O)NCCOCCOCC(=O)NCCOCCOCC(=O)NC[C@H](NC(=O)CCCCCCCCCCCCCCCCC(=O)O)C(=O)O)[C@@H](C)O [4-36, H2N-His-Aib-Glu-Gly-Thr-α-MePhe(2-F)-Thr-Ser-Asp-Bip-Hph-C(O)NH-RY2] (H-H[Aib]EGT[αMePhe(2-F)]TSD[Bip][hPhe][AEEA][AEEA]-{Dap(Nα-HOOC(CH2)16CO)OH})
potency relative to the parent peptide (1-4), fold less potent: 15 fold

C[C@@H](O)[C@H](NC(=O)CNC(=O)[C@H](CCC(=O)O)NC(=O)C(C)(C)NC(=O)[C@@H](N)Cc1c[nH]cn1)C(=O)N[C@@](C)(Cc1ccccc1F)C(=O)N[C@H](C(=O)N[C@@H](CO)C(=O)N[C@@H](CC(=O)O)C(=O)N[C@@H](Cc1ccc(-c2ccccc2)cc1)C(=O)N[C@@H](CCc1ccccc1)C(=O)NCCOCCOCC(=O)NCCOCCOCC(=O)NCCOCCOCC(=O)NC[C@H](NC(=O)CCc1ccc(I)cc1)C(=O)O)[C@@H](C)O [4-37, H2N-His-Aib-Glu-Gly-Thr-α-MePhe(2-F)-Thr-Ser-Asp-Bip-Hph-C(O)NH-RY3] (H-H[Aib]EGT[αMePhe(2-F)]TSD[Bip][hPhe][AEEA][AEEA][AEEA]-X2)
EC50 [1]: 4.08 nM | potency relative to the parent peptide (1-4), fold less potent: equipotency

C[C@@H](O)[C@H](NC(=O)CNC(=O)[C@H](CCC(=O)O)NC(=O)C(C)(C)NC(=O)[C@@H](N)Cc1c[nH]cn1)C(=O)N[C@@](C)(Cc1ccccc1F)C(=O)N[C@H](C(=O)N[C@@H](CO)C(=O)N[C@@H](CC(=O)O)C(=O)N[C@@H](Cc1ccc(-c2ccccc2)cc1)C(=O)N[C@@H](CCc1ccc(OC(=O)NCCOCCOCC(=O)NCCOCCOCC(N)=O)cc1)C(N)=O)[C@@H](C)O [4-38, H2N-His-Aib-Glu-Gly-Thr-α-MePhe(2-F)-Thr-Ser-Asp-Bip-Hph(4-OR4)-C(O)NH2] (H-H[Aib]EGT[αMePhe(2-F)]TSD[Bip][X6]([AEEA-AEEA-NH2])-NH2)
EC50 [1]: 320 nM

C[C@@H](O)[C@H](NC(=O)CNC(=O)[C@H](CCC(=O)O)NC(=O)C(C)(C)NC(=O)[C@@H](N)Cc1c[nH]cn1)C(=O)N[C@@](C)(Cc1ccccc1F)C(=O)N[C@H](C(=O)N[C@@H](CO)C(=O)N[C@@H](CC(=O)O)C(=O)N[C@@H](Cc1ccc(-c2ccccc2)cc1)C(=O)N[C@@H](CCc1ccc(OC(=O)NCCOCCOCC(=O)NCCOCCOCC(=O)NC[C@H](NC(=O)CCCCCCCCCCCCCCCCC(=O)O)C(=O)O)cc1)C(N)=O)[C@@H](C)O [4-39, H2N-His-Aib-Glu-Gly-Thr-α-MePhe(2-F)-Thr-Ser-Asp-Bip-Hph(4-OR5)-C(O)NH2] (H-H[Aib]EGT[αMePhe(2-F)]TSD[Bip][X6]([AEEA-AEEA-Dap(Nα-HOOC(CH2)16CO)OH])-NH2)
EC50 [1]: 232 nM

C[C@@H](O)[C@H](NC(=O)CNC(=O)[C@H](CCC(=O)O)NC(=O)C(C)(C)NC(=O)[C@@H](N)Cc1c[nH]cn1)C(=O)N[C@@](C)(Cc1ccccc1F)C(=O)N[C@H](C(=O)N[C@@H](CO)C(=O)N[C@@H](CC(=O)O)C(=O)N[C@@H](Cc1ccc(-c2ccccc2)cc1)C(=O)N[C@@H](CCc1ccc(OC(=O)NCCOCCOCC(=O)NCCOCCOCC(=O)NCCOCCOCC(=O)NC[C@H](NC(=O)CCc2ccc(I)cc2)C(=O)O)cc1)C(N)=O)[C@@H](C)O [4-40, H2N-His-Aib-Glu-Gly-Thr-α-MePhe(2-F)-Thr-Ser-Asp-Bip-Hph(4-OR6)-C(O)NH2] (H-H[Aib]EGT[αMePhe(2-F)]TSD[Bip][X6]([AEEA-AEEA-AEEA-X2])-NH2)
EC50 [1]: 49.7 nM

C[C@@H](O)[C@H](NC(=O)CNC(=O)[C@H](CCC(=O)O)NC(=O)C(C)(C)NC(=O)[C@@H](N)Cc1c[nH]cn1)C(=O)N[C@@](C)(Cc1ccccc1F)C(=O)N[C@H](C(=O)N[C@@H](CO)C(=O)N[C@@H](CC(=O)O)C(=O)N[C@@H](Cc1ccc(-c2ccccc2)cc1)C(=O)N[C@@H](Cc1ccc(-c2ccccc2)cc1)C(=O)NCCOCCOCC(=O)NCCOCCOCC(=O)N[C@H](CNC(=O)CCCCCCCCCCCCCCCCC(=O)O)C(N)=O)[C@@H](C)O [4-46, H2N-His-Aib-Glu-Gly-Thr-α-MePhe(2-F)-Thr-Ser-Asp-Bip-Bip-C(O)NH-RY8] (H-H[Aib]EGT[αMePhe(2-F)]TSD[Bip][Bip][AEEA][AEEA][dDap](C18 diacid)-NH2)
EC50 [1]: 5.4 nM

C[C@@H](O)[C@H](NC(=O)CNC(=O)[C@H](CCC(=O)O)NC(=O)C(C)(C)NC(=O)[C@@H](N)Cc1c[nH]cn1)C(=O)N[C@@](C)(Cc1ccccc1F)C(=O)N[C@H](C(=O)N[C@@H](CO)C(=O)N[C@@H](CC(=O)O)C(=O)N[C@@H](Cc1ccc(-c2ccccc2)cc1)C(=O)N[C@@H](Cc1ccc(-c2ccccc2)cc1)C(=O)NCCOCCOCC(=O)NCCOCCOCC(=O)NCCOCCOCC(=O)N[C@H](CNC(=O)CCc1ccc(I)cc1)C(N)=O)[C@@H](C)O [4-47, H2N-His-Aib-Glu-Gly-Thr-α-MePhe(2-F)-Thr-Ser-Asp-Bip-Bip-C(O)NH-RY9] (H-H[Aib]EGT[αMePhe(2-F)]TSD[Bip][Bip][AEEA][AEEA][AEEA][dDap](Hydrocinnamoyl(4-I))-NH2)
EC50 [1]: 0.6 nM
